Data set [1] in a line: Reducing power by the Somogyi-Nelson method. Format: physicochemical. As for the experimental part:
Thereafter these high-purity saccharide preparations were tested for reducing power with the Somogyi-Nelson method and their reducing powers were represented in terms of DE.

Data set [2] can be described thus: Acute toxicity in mice upon oral administration. As to conditions: mouse, in vivo, acute. The class given is in vivo. Here is the method: (§1) High-purity maltosyl maltoside, maltotriosyl maltoside and maltotriosyl maltotrioside prepared by the method in Experiment B-1 were tested for acute toxicity in mice upon oral administration.
Another data set relates to mice. The data set can be described thus: Acute toxicity in mice upon oral administration. Format: in vivo. The following applies: for death: maximum administrable dose. Here is the method: as §1
Data set [3] can be described thus: Solubility of crystals in water. Format: physicochemical. The following applies: purity 99.0%, 25° C. water. As for the experimental part: An alpha-D-maltotriosyl alpha-D-maltotrioside (Substance 3), purity of 97% or higher, prepared by the method in Experiment B-1, was decolored, deionized and concentrated to 70% in usual manner and the concentrate was transferred in a beaker and allowed to stand in 4° C. chilled room for 2 months leading to eduction of crystals. The crystals were centrifugally collected and washed with a minimum amount of water, thus obtaining crystals with a purity of 99.0%.
The physicochemical properties of the crystals as tested were as follows:
Relatively high, about 91 g being soluble in 100 ml of 25° C. water.

A short description of data set [4]: Hygroscopicity of crystalline maltotriosyl maltotrioside. The class given is physicochemical. The following applies: varies depending on purity.

Converted amounts (≈) assume the structure as drawn.

`OC[C@H]1O[C@H](O[C@H]2O[C@H](CO)[C@@H](O[C@H]3O[C@H](CO)[C@@H](O)[C@H](O)[C@H]3O)[C@H](O)[C@H]2O)[C@H](O)[C@@H](O)[C@@H]1O` [PI, alpha-glucosyl trehalose]: the “DE (reducing power)” value in data set [1] was determined as 0.83.
On to `OC[C@H]1O[C@H](O[C@H]2O[C@H](CO)[C@@H](O[C@H]3O[C@H](CO)[C@@H](O[C@H]4O[C@H](CO)[C@@H](O)[C@H](O)[C@H]4O)[C@H](O)[C@H]3O)[C@H](O)[C@H]2O)[C@H](O)[C@@H](O)[C@@H]1O` [PII, alpha-maltosyl trehalose], for which the “DE (reducing power)” value in data set [1] is reported as 0.35.
Same read-out and setting: next, `OC[C@H]1O[C@H](O[C@H]2O[C@H](CO)[C@@H](O[C@H]3O[C@H](CO)[C@@H](O[C@H]4O[C@H](CO)[C@@H](O[C@H]5O[C@H](CO)[C@@H](O)[C@H](O)[C@H]5O)[C@H](O)[C@H]4O)[C@H](O)[C@H]3O)[C@H](O)[C@H]2O)[C@H](O)[C@@H](O)[C@@H]1O` [PIII, alpha-maltotriosyl trehalose]: 0.10; `OC[C@H]1O[C@H](O[C@H]2O[C@H](CO)[C@@H](O[C@H]3O[C@H](CO)[C@@H](O[C@H]4O[C@H](CO)[C@@H](O[C@H]5O[C@H](CO)[C@@H](O[C@H]6O[C@H](CO)[C@@H](O)[C@H](O)[C@H]6O)[C@H](O)[C@H]5O)[C@H](O)[C@H]4O)[C@H](O)[C@H]3O)[C@H](O)[C@H]2O)[C@H](O)[C@@H](O)[C@@H]1O` [PIV, alpha-maltotetraosyl trehalose]: 0.27.
The same measure, in the same setting: in the case of `OC[C@H]1O[C@H](O[C@H]2O[C@H](CO)[C@@H](O[C@H]3O[C@H](CO)[C@@H](O[C@H]4O[C@H](CO)[C@@H](O[C@H]5O[C@H](CO)[C@@H](O[C@H]6O[C@H](CO)[C@@H](O[C@H]7O[C@H](CO)[C@@H](O)[C@H](O)[C@H]7O)[C@H](O)[C@H]6O)[C@H](O)[C@H]5O)[C@H](O)[C@H]4O)[C@H](O)[C@H]3O)[C@H](O)[C@H]2O)[C@H](O)[C@@H](O)[C@@H]1O` [PV, alpha-maltopentaosyl trehalose] it was 0.23.
By LD50 is commonly meant the dose expected to kill half of the subjects tested. Read a low LD50 as a more toxic substance. Molecule `OC[C@H]1O[C@H](O[C@H]2[C@H](O)[C@@H](O)[C@@H](O[C@H]3O[C@H](CO)[C@@H](O[C@H]4O[C@H](CO)[C@@H](O)[C@H](O)[C@H]4O)[C@H](O)[C@H]3O)O[C@@H]2CO)[C@H](O)[C@@H](O)[C@@H]1O` [maltosyl maltoside, O-alpha-D-glucopyranosyl-(1→4)-alpha-D-glucopyranosyl alpha-D-maltoside] gave an LD50 in data set [2] of no less than 50000 mg/kg. Further, in the data set with mice, the acute toxicity entry is “low intoxicity” and the death entry is recorded as “no death was observed”.
`OC[C@H]1O[C@H](O[C@H]2[C@H](O)[C@@H](O)[C@@H](O[C@H]3O[C@H](CO)[C@@H](O[C@H]4O[C@H](CO)[C@@H](O[C@H]5O[C@H](CO)[C@@H](O)[C@H](O)[C@H]5O)[C@H](O)[C@H]4O)[C@H](O)[C@H]3O)O[C@@H]2CO)[C@H](O)[C@@H](O)[C@@H]1O` [maltotriosyl maltoside, O-alpha-D-glucopyranosyl-(1→4)-O-alpha-D-glucopyranosyl-(1→4)-alpha-D-glucopyranosyl alpha-D-maltoside] gave an LD50 in data set [2] of no less than 50000 mg/kg. In the data set with mice, the acute toxicity result is reported as “low intoxicity” and the death entry is “no death was observed”.
Broadly, the solubility is how much of the substance goes into solution per volume. In the case of `OC[C@H]1O[C@H](O[C@H]2[C@H](O)[C@@H](O)[C@@H](O[C@H]3[C@H](O)[C@@H](O)[C@@H](O[C@H]4O[C@H](CO)[C@@H](O[C@H]5O[C@H](CO)[C@@H](O[C@H]6O[C@H](CO)[C@@H](O)[C@H](O)[C@H]6O)[C@H](O)[C@H]5O)[C@H](O)[C@H]4O)O[C@@H]3CO)O[C@@H]2CO)[C@H](O)[C@@H](O)[C@@H]1O` [maltotriosyl maltotrioside, O-alpha-D-glucopyranosyl-(1→4)-O-alpha-D-glucopyranosyl-(1→4)-alpha-D-glucopyranosyl alpha-D-maltotrioside], the LD50 in data set [2] was no less than 50000 mg/kg. In addition, in the data set with mice, the acute toxicity result was “low intoxicity” and the death entry is listed as “no death was observed”. Moreover, in data set [3], the solubility was roughly 910 mg/mL (≈ 918 mM). Also, in data set [4] (listed as crystalline alpha-D-maltotriosyl alpha-D-maltotrioside), the hygroscopicity entry was “very weak hygroscopicity”. In addition, in data set [4] (listed as crystalline maltotriosyl maltotrioside), the hygroscopicity result was “substantially non-hygroscopic”.

Values taken from patent US5780620A, “Non-reducing oligosaccharides and their production and use” (Kabushiki Kaisha Hayashibara Seibutsu Kagaku Kenkyujo, priority 1993, dated 1998).
